Measured values as given in ChEMBL document CHEMBL1201862, “PubChem BioAssay data set” (2004).
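Tested at 5 concentrations; 48 h exposure; 96-well plates; endpoints linearly interpolated, else capped at highest concentration. GI50 = concentration required for 50% inhibition of growth.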 The source made the active and inactive calls. No stated cut-off is given here; in the data, active = GI50 up to about 1.1 µM and inactive = higher.

Experiments:
Test in all cases: NCI-60 cell line screen, 48 h
[1] = tested on: 786-0
[2] = tested on: A498
[3] = tested on: A549
[4] = tested on: ACHN
[5] = tested on: BT-549
[6] = tested on: CAKI-1
[7] = tested on: CCRF-CEM
[8] = tested on: COLO 205
[9] = tested on: DU-145
[10] = tested on: EKVX
[11] = tested on: HCC 2998
[12] = tested on: HCT-116
[13] = tested on: HL-60
[14] = tested on: HOP-62
[15] = tested on: HT-29
[16] = tested on: Hs-578T
[17] = tested on: IGROV-1
[18] = tested on: K562
[19] = tested on: M14
[20] = tested on: MCF7
[21] = tested on: MDA-MB-231
[22] = tested on: MDA-MB-435
[23] = tested on: MDA-N
[24] = tested on: MOLT-4
[25] = tested on: Malme-3M
[26] = tested on: NCI-H226
[27] = tested on: NCI-H23
[28] = tested on: NCI-H522
[29] = tested on: NCI/ADR-RES
[30] = tested on: OVCAR-3
[31] = tested on: OVCAR-5
[32] = tested on: OVCAR-8
[33] = tested on: PC-3
[34] = tested on: RXF 393
[35] = tested on: SF-268
[36] = tested on: SF-295
[37] = tested on: SF-539
[38] = tested on: SK-MEL-2
[39] = tested on: SK-MEL-5
[40] = tested on: SK-OV-3
[41] = tested on: SN12C
[42] = tested on: SR
[43] = tested on: T47D
[44] = tested on: TK-10
[45] = tested on: U-251
[46] = tested on: UACC-257
[47] = tested on: UACC-62
[48] = tested on: UO-31
[49] = tested on: HCT-15
[50] = tested on: HOP-92
[51] = tested on: KM12
[52] = tested on: LOX IMVI
[53] = tested on: NCI-H460
[54] = tested on: OVCAR-4
[55] = tested on: RPMI-8226
[56] = tested on: SK-MEL-28
[57] = tested on: SNB-19
[58] = tested on: SNB-75
[59] = tested on: SW-620

`COc1c(-c2ccc(F)cc2)oc2c(CC(=O)O)cccc2c1=O` was tested, and the GI50 [1] was > 100 µM (inactive), the GI50 [2] was > 100 µM (inactive) and the GI50 [3] was > 100 µM (inactive). For the same compound, the GI50 [4] was > 100 µM (inactive), the GI50 [5] was > 100 µM (inactive) and the GI50 [6] was 22.3 µM (inactive). For the same compound, the GI50 [7] was > 100 µM (inactive), the GI50 [8] was > 100 µM (inactive) and the GI50 [9] was > 100 µM (inactive). For the same compound, the GI50 [10] was > 100 µM (inactive), the GI50 [11] was > 100 µM (inactive) and the GI50 [12] was > 100 µM (inactive). For the same compound, the GI50 [13] was > 100 µM (inactive), the GI50 [14] was > 100 µM (inactive) and the GI50 [15] was > 100 µM (inactive). The GI50 [16] was > 100 µM (inactive), the GI50 [17] was > 100 µM (inactive) and the GI50 [18] was > 100 µM (inactive). The GI50 [19] was > 100 µM (inactive), the GI50 [20] was > 100 µM (inactive) and the GI50 [21] was > 100 µM (inactive). For the same compound, the GI50 [22] was > 100 µM (inactive), the GI50 [23] was > 100 µM (inactive) and the GI50 [24] was > 100 µM (inactive). For the same compound, the GI50 [25] was > 100 µM (inactive), the GI50 [26] was > 100 µM (inactive) and the GI50 [27] was 45.5 µM (inactive). The GI50 [28] was > 100 µM (inactive), the GI50 [29] was > 100 µM (inactive) and the GI50 [30] was > 100 µM (inactive). The GI50 [31] was > 100 µM (inactive), the GI50 [32] was > 100 µM (inactive) and the GI50 [33] was > 100 µM (inactive). The GI50 [34] was > 100 µM (inactive), the GI50 [35] was > 100 µM (inactive) and the GI50 [36] was > 100 µM (inactive). The GI50 [37] was > 100 µM (inactive), the GI50 [38] was > 100 µM (inactive) and the GI50 [39] was > 100 µM (inactive). The GI50 [40] was > 100 µM (inactive), the GI50 [41] was > 100 µM (inactive) and the GI50 [42] was > 100 µM (inactive). For the same compound, the GI50 [43] was > 100 µM (inactive), the GI50 [44] was > 100 µM (inactive) and the GI50 [45] was > 100 µM (inactive). The GI50 [46] was > 100 µM (inactive), the GI50 [47] was > 100 µM (inactive) and the GI50 [48] was 40.9 µM (inactive).
For `CC(C)NC(NC(C)C)=C(S(=O)(=O)C(F)(F)C(F)(F)C(F)(F)C(F)(F)F)S(=O)(=O)C(F)(F)C(F)(F)C(F)(F)C(F)(F)F`, the GI50 [1] was > 100 µM (inactive), the GI50 [2] was > 100 µM (inactive) and the GI50 [3] was > 100 µM (inactive). The GI50 [4] was > 100 µM (inactive), the GI50 [5] was 90.8 µM (inactive) and the GI50 [6] was > 100 µM (inactive). For the same compound, the GI50 [7] was > 100 µM (inactive), the GI50 [8] was > 100 µM (inactive) and the GI50 [9] was > 100 µM (inactive). For the same compound, the GI50 [10] was > 100 µM (inactive), the GI50 [11] was > 100 µM (inactive) and the GI50 [12] was > 100 µM (inactive). For the same compound, the GI50 [49] was over 100 µM, the GI50 [13] was > 100 µM (inactive) and the GI50 [14] was > 100 µM (inactive). The GI50 [50] was > 100 µM (inactive), the GI50 [15] was > 100 µM (inactive) and the GI50 [16] was > 100 µM (inactive). The GI50 [17] was > 100 µM (inactive), the GI50 [18] was > 100 µM (inactive) and the GI50 [51] was > 100 µM (inactive). For the same compound, the GI50 [52] was > 100 µM (inactive), the GI50 [19] was > 100 µM (inactive) and the GI50 [20] was > 100 µM (inactive). The GI50 [21] was > 100 µM (inactive), the GI50 [22] was > 100 µM (inactive) and the GI50 [23] was > 100 µM (inactive). For the same compound, the GI50 [24] was > 100 µM (inactive), the GI50 [25] was > 100 µM (inactive) and the GI50 [26] was > 100 µM (inactive). For the same compound, the GI50 [27] was > 100 µM (inactive), the GI50 [53] was > 100 µM (inactive) and the GI50 [28] was > 100 µM (inactive). The GI50 [29] was > 100 µM (inactive), the GI50 [30] was > 100 µM (inactive) and the GI50 [54] was > 100 µM (inactive). For the same compound, the GI50 [31] was > 100 µM (inactive), the GI50 [32] was > 100 µM (inactive) and the GI50 [33] was > 100 µM (inactive). For the same compound, the GI50 [55] was > 100 µM (inactive), the GI50 [35] was > 100 µM (inactive) and the GI50 [36] was > 100 µM (inactive). For the same compound, the GI50 [37] was > 100 µM (inactive), the GI50 [56] was > 100 µM (inactive) and the GI50 [38] was > 100 µM (inactive). For the same compound, the GI50 [39] was > 100 µM (inactive), the GI50 [40] was > 100 µM (inactive) and the GI50 [41] was > 100 µM (inactive). For the same compound, the GI50 [57] was > 100 µM (inactive), the GI50 [58] was > 100 µM (inactive) and the GI50 [42] was > 100 µM (inactive). The GI50 [59] was > 100 µM (inactive), the GI50 [43] was > 100 µM (inactive) and the GI50 [44] was > 100 µM (inactive). The GI50 [45] was > 100 µM (inactive), the GI50 [46] was > 100 µM (inactive) and the GI50 [47] was > 100 µM (inactive). The GI50 [48] was > 100 µM (inactive).
